Patent US9023847B2, “Azaheterocyclic compounds” (Merck Patent GmbH, priority 2009, dated 2015)
Where two headings read alike, the source gives them in different places.

Biological target: T1, P70S6K (T412E mutant, Millipore) (Homo sapiens, UniProt P23443, T412E)
T1 construct: purchased Millipore
Assay: p70S6K enzyme assay
Type: biochemical
Conditions: 3 nM P70S6K, 24 μM ATP
In short: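 T412E-mutant P70S6K (3 nM) with 24 μM ATP and 1 μM FITC-AHA-AKRRRLSSLRA-OH S6-derived peptide in 100 mM Hepes pH 7.5, 5 mM MgCl2, 1 mM DTT, 0.015% Brij; 90 min at 25° C, EDTA stop. Phosphorylated product and substrate peptide separated and quantified by microfluidic capillary electrophoresis (Caliper LabChip 3000).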

[1] = class symbol, read-out: IC50 (p70S6K)
[2] = Table 1, 90 min at 25° C., read-out: p70S6K inhibition (IC50)

T1 sequence (P23443 whole entry T412E): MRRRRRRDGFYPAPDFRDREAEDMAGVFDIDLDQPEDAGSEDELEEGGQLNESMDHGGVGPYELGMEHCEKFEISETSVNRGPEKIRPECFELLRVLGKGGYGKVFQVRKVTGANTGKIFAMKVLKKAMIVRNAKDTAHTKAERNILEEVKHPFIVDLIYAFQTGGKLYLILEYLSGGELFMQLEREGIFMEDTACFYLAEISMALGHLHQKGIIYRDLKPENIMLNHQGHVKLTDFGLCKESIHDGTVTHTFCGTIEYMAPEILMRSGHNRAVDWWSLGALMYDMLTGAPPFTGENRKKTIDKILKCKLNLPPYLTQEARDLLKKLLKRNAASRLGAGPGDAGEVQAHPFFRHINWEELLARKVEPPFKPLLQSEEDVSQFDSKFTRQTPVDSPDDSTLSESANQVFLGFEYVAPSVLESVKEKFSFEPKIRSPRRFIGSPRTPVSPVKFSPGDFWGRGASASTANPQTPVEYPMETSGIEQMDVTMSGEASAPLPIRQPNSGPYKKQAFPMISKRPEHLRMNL

SMILES | IC50 [1] [nM] | IC50 [2] [nM]
CNCC(NC(=O)c1sccc1Nc1ccnc2[nH]ccc12)c1cccc(F)c1 (stereo not shown) [Example 167, 3-(1H-Pyrrolo[2,3-b]pyridin-4-ylamino)-thiophene-2-carboxylic acid [1-(3-fluoro-phenyl)-2-methylamino-ethyl]-amide] | < 100 | 
O=C(NCCNCc1ccoc1)c1sccc1Nc1ccnc2[nH]ccc12 [Example 53, 3-(1H-Pyrrolo[2,3-b]pyridin-4-ylamino)-thiophene-2-carboxylic acid {2-[(furan-3-ylmethyl)-amino]-ethyl}-amide] | < 100 | 
O=C(NCCc1ccncc1)c1sccc1Nc1ccnc2[nH]ccc12 [Example 17, 3-(1H-Pyrrolo[2,3-b]pyridin-4-ylamino)-thiophene-2-carboxylic acid (2-pyridin-4-yl-ethyl)-amide] | 100 to 1000 | 
[N-]=[N+]=NCC(NC(=O)c1sccc1Nc1ccnc2[nH]ccc12)c1ccccc1 (stereo not shown) [Example 76, 3-(1H-Pyrrolo[2,3-b]pyridin-4-ylamino)-thiophene-2-carboxylic acid (2-azido-1-phenyl-ethyl)-amide] | < 100 | 
O=C(NCCc1cccc(C(F)(F)F)c1)c1sccc1Nc1ccnc2[nH]ccc12 [Example 18, 3-(1H-Pyrrolo[2,3-b]pyridin-4-ylamino)-thiophene-2-carboxylic acid [2-(3-trifluoromethyl-phenyl)-ethyl]-amide] | < 100 | 
COC(=O)CNC(=O)c1sccc1Nc1ccnc2[nH]ccc12 [Example 138, {[3-(1H-Pyrrolo[2,3-b]pyridin-4-ylamino)-thiophene-2-carbonyl]-amino}-acetic acid methyl ester] | 100 to 1000 | 
CN(C)c1cc(C(=O)Nc2cccc(CNC(=O)c3sccc3Nc3ccnc4[nH]ccc34)c2)ccn1 [Example 162, 2-Dimethylamino-N-[3-({[3-(1H-pyrrolo[2,3-b]pyridin-4-ylamino)-thiophene-2-carbonyl]-amino}-methyl)-phenyl]-isonicotinamide] | < 100 | 
O=C(N[C@H](CO)c1ccccc1)c1ccsc1Nc1ccnc2[nH]ccc12 [Example 75, 2-(1H-Pyrrolo[2,3-b]pyridin-4-ylamino)-thiophene-3-carboxylic acid ((S)-2-hydroxy-1-phenyl-ethyl)-amide] | < 100 | 
NCC(NC(=O)c1ccsc1Nc1ccnc2[nH]ccc12)c1ccc(C(F)(F)F)cc1 (stereo not shown) [Example 133, 2-(1H-Pyrrolo[2,3-b]pyridin-4-ylamino)-thiophene-3-carboxylic acid [2-amino-1-(4-trifluoromethyl-phenyl)-ethyl]-amide] | < 100 | 
Cc1ccc(CNCCNC(=O)c2sccc2Nc2ccnc3[nH]ccc23)cc1 [Example 136, 3-(1H-Pyrrolo[2,3-b]pyridin-4-ylamino)-thiophene-2-carboxylic acid [2-(4-methyl-benzylamino)-ethyl]-amide] | < 100 | 
CC(O)CNC(=O)c1sccc1Nc1ccnc2[nH]ccc12 (stereo not shown) [Example 11, 3-(1H-Pyrrolo[2,3-b]pyridin-4-ylamino)-thiophene-2-carboxylic acid (2-hydroxy-propyl)-amide] | 100 to 1000 | 
O=C(NCCCCO)c1sccc1Nc1ccnc2[nH]ccc12 [Example 31, 3-(1H-Pyrrolo[2,3-b]pyridin-4-ylamino)-thiophene-2-carboxylic acid (4-hydroxy-butyl)-amide] | 100 to 1000 | 
[N-]=[N+]=NC[C@@H](NC(=O)c1ccsc1Nc1ccnc2[nH]ccc12)c1ccccc1 [Example 114, 2-(1H-Pyrrolo[2,3-b]pyridin-4-ylamino)-thiophene-3-carboxylic acid ((S)-2-azido-1-phenyl-ethyl)-amide] | < 100 | 
O=C(NC1CCCNC1)c1ccsc1Nc1ccnc2[nH]ccc12 (stereo not shown) [Example 105, 2-(1H-Pyrrolo[2,3-b]pyridin-4-ylamino)-thiophene-3-carboxylic acid piperidin-3-ylamide] | < 100 | 
CNCC(NC(=O)c1sccc1Nc1ccnc2[nH]ccc12)c1cccc(Cl)c1 (stereo not shown) [Example 168, 3-(1H-Pyrrolo[2,3-b]pyridin-4-ylamino)-thiophene-2-carboxylic acid [1-(3-chloro-phenyl)-2-methylamino-ethyl]-amide] | < 100 | 

Next, values leading:

IC50 [1] [nM] | IC50 [2] [nM] | SMILES
< 100 |  | O=C(NCc1ccccc1)c1sccc1Nc1ncnc2[nH]ccc12 [Example 172, 3-(7H-Pyrrolo[2,3-d]pyrimidin-4-ylamino)-thiophene-2-carboxylic acid benzylamide]
 | 100 to 1000 | CNCCNC(=O)c1sccc1Nc1ncnc2[nH]ccc12 [Example 153, 3-(7H-Pyrrolo[2,3-d]pyrimidin-4-ylamino)-thiophene-2-carboxylic acid (2-methylamino-ethyl)-amide]
100 to 1000 |  | CC(=O)N(CCNC(=O)c1sccc1Nc1ccnc2[nH]ccc12)Cc1ccccc1 [Example 45, 3-(1H-Pyrrolo[2,3-b]pyridin-4-ylamino)-thiophene-2-carboxylic acid [2-(acetyl-benzyl-amino)-ethyl]-amide]
< 100 |  | O=C(NCCSCc1ccco1)c1sccc1Nc1ccnc2[nH]ccc12 [Example 24, 3-(1H-Pyrrolo[2,3-b]pyridin-4-ylamino)-thiophene-2-carboxylic acid [2-(furan-2-ylmethylsulfanyl)-ethyl]-amide]
< 100 |  | NCC(NC(=O)c1sccc1Nc1ccnc2[nH]ccc12)c1ccccc1 (stereo not shown) [Example 77, 3-(1H-Pyrrolo[2,3-b]pyridin-4-ylamino)-thiophene-2-carboxylic acid (2-amino-1-phenyl-ethyl)-amide]
< 100 |  | O=C(NCCc1cccc(Cl)c1)c1sccc1Nc1ncnc2[nH]ccc12 [Example 182, 3-(7H-Pyrrolo[2,3-d]pyrimidin-4-ylamino)-thiophene-2-carboxylic acid [2-(3-chloro-phenyl)-ethyl]-amide]
< 100 |  | O=C(NCCNCc1ccccc1)c1ccsc1Nc1ccnc2[nH]ccc12 [Example 72, 2-(1H-Pyrrolo[2,3-b]pyridin-4-ylamino)-thiophene-3-carboxylic acid (2-benzylamino-ethyl)-amide]
100 to 1000 |  | O=C(NC(CO)C(=O)NCc1ccccc1)c1sccc1Nc1ccnc2[nH]ccc12 (stereo not shown) [Example 88, 3-(1H-Pyrrolo[2,3-b]pyridin-4-ylamino)-thiophene-2-carboxylic acid (1-benzylcarbamoyl-2-hydroxy-ethyl)-amide]
 | 1000 to 10000 | CC(C)(C)OC(=O)N(CCNC(=O)c1occc1Nc1ncnc2[nH]ccc12)Cc1ccccc1 [Example 157, Benzyl-(2-{[3-(7H-pyrrolo[2,3-d]pyrimidin-4-ylamino)-furan-2-carbonyl]-amino}-ethyl)-carbamic acid tert-butyl ester]
100 to 1000 |  | CC(C)(C)OC(=O)N1CCCC(NC(=O)c2sccc2Nc2ccnc3[nH]ccc23)C1 (stereo not shown) [Example 91, 3-{[3-(1H-Pyrrolo[2,3-b]pyridin-4-ylamino)-thiophene-2-carbonyl]-amino}-piperidine-1-carboxylic acid tert-butyl ester]
1000 to 10000 |  | CC(C)(C)OC(=O)N(CCNC(=O)c1occc1Nc1ncnc2[nH]ccc12)Cc1ccccc1 [Example 177]
< 100 |  | O=C(NCCc1ccc(F)cc1)c1sccc1Nc1ncnc2[nH]ccc12 [Example 179, 3-(7H-Pyrrolo[2,3-d]pyrimidin-4-ylamino)-thiophene-2-carboxylic acid [2-(4-fluoro-phenyl)-ethyl]-amide]
< 100 |  | O=C(NCCNc1ccccc1)c1sccc1Nc1ccnc2[nH]ccc12 [Example 34, 3-(1H-Pyrrolo[2,3-b]pyridin-4-ylamino)-thiophene-2-carboxylic acid (2-phenylamino-ethyl)-amide]
